The test system of the assay is BDF1 mice, P388 leukemia ip, median survival T/C. The assay is described as follows: NCI In Vivo Anticancer Drug Screen. Data for tumor model P388 Leukemia (intraperitoneal) in B6D2F1 (BDF1) mice. To be noted: endpoint: median survival time, higher = longer survival. In short, it runs like this: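 Read-out is survival of treated animals expressed relative to the vehicle group, as a T/C ratio.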

Setting [1] is: dose: 25.0 mg/kg/injection, schedule: Q01DX009 (ip), vehicle: Klucel (hydroxypropylcellulose) (HPC).
Setting [2] is: dose: 50.0 mg/kg/injection, schedule: Q04DX003 (ip), vehicle: saline.
The mark [3] stands for this setting: dose: 100.0 mg/kg/injection, schedule: Q04DX003 (ip), vehicle: saline.
Where [4] appears, read: dose: 100.0 mg/kg/injection, schedule: Q01DX009 (ip), vehicle: other.
[5] abbreviates: dose: 100.0 mg/kg/injection, schedule: Q04DX003 (ip), vehicle: other.
Setting [6] is: dose: 200.0 mg/kg/injection, schedule: Q01DX009 (ip), vehicle: other.
The mark [7] stands for this setting: dose: 200.0 mg/kg/injection, schedule: Q04DX003 (ip), vehicle: other.
The mark [8] stands for this setting: dose: 400.0 mg/kg/injection, schedule: Q04DX003 (ip), vehicle: other.
[9] abbreviates: dose: 50.0 mg/kg/injection, schedule: Q01DX009 (ip), vehicle: saline with Tween-80.
Where [10] appears, read: dose: 100.0 mg/kg/injection, schedule: Q01DX009 (ip), vehicle: saline with Tween-80.
[11] abbreviates: dose: 50.0 mg/kg/injection, schedule: Q01DX009 (ip), vehicle: other.
The mark [12] stands for this setting: dose: 100.0 mg/kg/injection, schedule: Q04DX003 (ip), vehicle: saline with Tween-80.
Where [13] appears, read: dose: 200.0 mg/kg/injection, schedule: Q04DX003 (ip), vehicle: saline with Tween-80.
[14] abbreviates: dose: 400.0 mg/kg/injection, schedule: Q04DX003 (ip), vehicle: saline with Tween-80.
Setting [15] is: dose: 25.0 mg/kg/injection, schedule: Q01DX009 (ip), vehicle: saline with Tween-80.
The mark [16] stands for this setting: dose: 200.0 mg/kg/injection, schedule: Q04DX003 (ip), vehicle: saline.
The mark [17] stands for this setting: dose: 100.0 mg/kg/injection, schedule: Q01DX009 (ip), vehicle: Klucel (hydroxypropylcellulose) (HPC).
The mark [18] stands for this setting: dose: 100.0 mg/kg/injection, schedule: Q04DX003 (ip), vehicle: Klucel (hydroxypropylcellulose) (HPC).
[19] abbreviates: dose: 200.0 mg/kg/injection, schedule: Q01DX009 (ip), vehicle: Klucel (hydroxypropylcellulose) (HPC).
Setting [20] is: dose: 200.0 mg/kg/injection, schedule: Q04DX003 (ip), vehicle: Klucel (hydroxypropylcellulose) (HPC).
Setting [21] is: dose: 400.0 mg/kg/injection, schedule: Q04DX003 (ip), vehicle: Klucel (hydroxypropylcellulose) (HPC).

Our source for the T/C values is PubChem BioAssay AID328 (DTP/NCI, 2004).

Several values for one entry are separate records, joined by “and”; a condition that tells them apart may be missing. Equal entries are not always repeated. Inconclusive results and toxic doses are left out.

On to `COc1ccc(C(SCC(N)C(=O)O)(c2ccccc2)c2ccc(OC)cc2)cc1` (centres undefined), for which the T/C is, setting by setting: (dose: 3.0 mg/kg/injection, schedule: Q01DX009 (ip), vehicle: Klucel (hydroxypropylcellulose) (HPC)) 123 % of control; (dose: 4.8 mg/kg/injection, schedule: Q04DX003 (ip), vehicle: Klucel (hydroxypropylcellulose) (HPC)) 104 % of control; (dose: 7.0 mg/kg/injection, schedule: Q01DX009 (ip), vehicle: Klucel (hydroxypropylcellulose) (HPC)) 150 % of control; (dose: 7.2 mg/kg/injection, schedule: Q04DX003 (ip), vehicle: Klucel (hydroxypropylcellulose) (HPC)) 104 % of control; (dose: 10.0 mg/kg/injection, schedule: Q01DX009 (ip), vehicle: Klucel (hydroxypropylcellulose) (HPC)) 170 % of control; (dose: 11.0 mg/kg/injection, schedule: Q04DX003 (ip), vehicle: Klucel (hydroxypropylcellulose) (HPC)) 122 % of control. Also, the T/C (dose: 16.0 mg/kg/injection, schedule: Q01DX009 (ip), vehicle: Klucel (hydroxypropylcellulose) (HPC)) is 154 % of control; the T/C under setting [1] is 172 % of control and 181 % of control; the T/C (dose: 25.0 mg/kg/injection, schedule: Q04DX003 (ip), vehicle: saline) was 154 % of control; the T/C (dose: 33.0 mg/kg/injection, schedule: Q04DX003 (ip), vehicle: saline) is 209 % of control; the T/C (dose: 35.0 mg/kg/injection, schedule: Q01DX009 (ip), vehicle: Klucel (hydroxypropylcellulose) (HPC)) is 204 % of control; the T/C under setting [2] is 209 % of control and 213 % of control. In addition, the T/C was 231 % of control (dose: 75.0 mg/kg/injection, schedule: Q04DX003 (ip), vehicle: saline) and 95 % of control under setting [3].

As to `COc1c(Cl)cc(Cl)cc1Cl`, the T/C is, setting by setting: under setting [4], 90 % of control; under setting [5], 90 % of control; under setting [6], 100 % of control; under setting [7], 105 % of control; (dose: 400.0 mg/kg/injection, schedule: Q01DX009 (ip), vehicle: other) 114 % of control; under setting [8], 110 % of control.

Turning to `COc1ccc(/C=C2\CCCC3=C2NC(=S)NC3c2ccc(OC)cc2)cc1` (centres undefined), the T/C was 107 % of control under setting [9]; 97 % of control under setting [10]; 91 % of control (dose: 200.0 mg/kg/injection, schedule: Q01DX009 (ip), vehicle: saline with Tween-80).

As to `CCOC(=O)C(C)NC(=O)C(C)NC(=O)OCc1ccccc1` (centres undefined), the T/C (dose: 100.0 mg/kg/injection, schedule: Q01DX009 (ip), vehicle: gum acacia) was 120 % of control; the T/C (dose: 100.0 mg/kg/injection, schedule: Q04DX003 (ip), vehicle: gum acacia) is 95 % of control; the T/C (dose: 200.0 mg/kg/injection, schedule: Q01DX009 (ip), vehicle: gum acacia) is 100 % of control; the T/C (dose: 200.0 mg/kg/injection, schedule: Q04DX003 (ip), vehicle: gum acacia) was 112 % of control; the T/C (dose: 400.0 mg/kg/injection, schedule: Q01DX009 (ip), vehicle: gum acacia) was 95 % of control; the T/C (dose: 400.0 mg/kg/injection, schedule: Q04DX003 (ip), vehicle: gum acacia) was 87 % of control.

Turning to `O=C(O)C(CCO)C(=O)C(F)(F)F` (centres undefined), the T/C is 98 % of control (dose: 25.0 mg/kg/injection, schedule: Q01DX009 (ip), vehicle: other); 98 % of control under setting [11]; 91 % of control under setting [4].

As for `CCCCCCCC(=O)Nc1ccc(C)cc1C`, the T/C is 95 % of control under setting [5], 104 % of control under setting [7] and 95 % of control under setting [8].

As to `COc1ccc(NC(=O)CCC(=O)O)cc1`, the T/C was 92 % of control under setting [12], 88 % of control under setting [13] and 88 % of control under setting [14].

Regarding `CCCC(=O)OCc1ccc(Cl)c(Cl)c1`, the T/C runs as follows: under setting [15], 100 % of control; under setting [9], 108 % of control; under setting [10], 112 % of control.

Regarding `CN(C)Cc1ccc([N+](=O)[O-])cc1`, the T/C (dose: 12.5 mg/kg/injection, schedule: Q01DX009 (ip), vehicle: saline) is 116 % of control; the T/C (dose: 25.0 mg/kg/injection, schedule: Q01DX009 (ip), vehicle: saline) is 119 % of control; the T/C (dose: 50.0 mg/kg/injection, schedule: Q01DX009 (ip), vehicle: saline) is 104 % of control; the T/C under setting [2] is 107 % of control; the T/C under setting [3] was 90 % of control; the T/C under setting [16] is 107 % of control.

With `O=C(O)CCN1CCCc2ccccc21`, the T/C under setting [11] was 95 % of control, the T/C under setting [4] is 104 % of control and the T/C under setting [6] was 95 % of control.

Regarding `O=[N+]([O-])c1ccc(N2CCN(CCO)CC2)c2c1no[n+]2[O-]`, the T/C by setting is: (dose: 15.0 mg/kg/injection, schedule: Q01DX009 (ip), vehicle: saline with Tween-80) 154 % of control; (dose: 30.0 mg/kg/injection, schedule: Q01DX009 (ip), vehicle: saline with Tween-80) 161 % of control.

Regarding `COc1cc2ccc3c(c2cc1OC)C=[N+](C)CC3`, the T/C by setting is: under setting [9], 108 % of control; under setting [3], 118 % of control; under setting [16], 118 % of control; (dose: 400.0 mg/kg/injection, schedule: Q04DX003 (ip), vehicle: saline) 90 % of control.

For the compound `C=CCCCC[P+](c1ccccc1)(c1ccccc1)c1ccccc1`, the T/C reads like this: (dose: 0.75 mg/kg/injection, schedule: Q01DX010 (ip), vehicle: saline) 110 % of control; (dose: 1.5 mg/kg/injection, schedule: Q01DX010 (ip), vehicle: saline) 115 % of control and 120 % of control; (dose: 6.0 mg/kg/injection, schedule: Q01DX010 (ip), vehicle: saline) 152 % of control; (dose: 12.0 mg/kg/injection, schedule: Q01DX010 (ip), vehicle: saline) 110 % of control.

As to `NC(=S)N/N=C/C(=N\NC(N)=S)C(O)C(O)C(O)CO` (centres undefined), the T/C under setting [15] was 100 % of control; the T/C under setting [9] is 95 % of control; the T/C under setting [10] is 100 % of control; the T/C (dose: 100.0 mg/kg/injection, schedule: Q04DX003 (ip), vehicle: saline sonified) is 100 % of control.

For `COC(=O)c1ccc(C(=O)O)[n+]([O-])c1`, the T/C under setting [1] is 96 % of control; the T/C (dose: 25.0 mg/kg/injection, schedule: Q04DX003 (ip), vehicle: Klucel (hydroxypropylcellulose) (HPC)) is 100 % of control; the T/C (dose: 50.0 mg/kg/injection, schedule: Q04DX003 (ip), vehicle: Klucel (hydroxypropylcellulose) (HPC)) was 104 % of control; the T/C under setting [17] was 88 % of control; the T/C under setting [18] is 113 % of control; the T/C under setting [19] was 89 % of control. In addition, the T/C was 95 % of control under setting [20] and 87 % of control under setting [21].

As to `c1ccc(CC2(Cc3ccccc3)SCCS2)cc1`, the T/C was 105 % of control under setting [17]; 95 % of control under setting [18]; 105 % of control under setting [19]; 104 % of control under setting [20]; 115 % of control (dose: 400.0 mg/kg/injection, schedule: Q01DX009 (ip), vehicle: Klucel (hydroxypropylcellulose) (HPC)); 104 % of control under setting [21].

Take `CC(C)(C)CN1CN(CC(C)(C)C)CN(CC(C)(C)C)C1`: the T/C by setting is: (dose: 100.0 mg/kg/injection, schedule: Q04DX002 (ip), vehicle: saline with Tween-80) 94 % of control; (dose: 200.0 mg/kg/injection, schedule: Q04DX002 (ip), vehicle: saline with Tween-80) 97 % of control; (dose: 400.0 mg/kg/injection, schedule: Q04DX002 (ip), vehicle: saline with Tween-80) 94 % of control.

Turning to `Cc1cccc(Cl)c1NC(=O)CCCl`, the T/C runs as follows: under setting [12], 90 % of control; under setting [13], 90 % of control; under setting [14], 109 % of control.
